Assay in all cases: NCI anticancer screen, dose series, 48 h
Assay [1] has as its system HCC 2998.
The test system of assay [2] is K562.
Assay [3] concerns SF-295.
Assay [4] deals with M14.
The test system of assay [5] is SNB-75.
Assay [6] has as its system UACC-257.
The test system of assay [7] is M19-MEL.
In assay [8] the test system is ACHN.
The subject of assay [9] is NCI-H460.
Assay [10] relates to NCI-H522.
Assay [11] deals with A549.
For assay [12], the system named is NCI-H23.
The subject of assay [13] is OVCAR-5.
Assay [14] has as its system CCRF-CEM.
The test system of assay [15] is OVCAR-4.
Assay [16] deals with UO-31.
The test system of assay [17] is MCF7.
Assay [18] concerns MDA-MB-231.
The test system of assay [19] is T47D.
Assay [20] relates to PC-3.

Each structure is given as a SMILES string.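 Results reflect a 48-hour exposure of cells in 96-well plates to compound at five concentrations. GI50 marks 50% less growth.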 The source made the active and inactive calls. Cut-off read from the data, not from the text of the source: active = GI50 up to about 1.1 µM and inactive = higher.

Turning to `O=C1CC(c2ccccc2)=Nc2ccccc2N1`, the GI50 in [1], in assay [2], in assay [3], in assay [4], in [5] and in assay [6] was > 100 µM (inactive) in each case. In addition, the GI50 in assay [7] is > 100 µM (inactive); in assay [8], > 100 µM (inactive); in assay [9], 42 µM (inactive); in assay [10] it was > 100 µM (inactive); in [11], > 100 µM (inactive); in assay [12] it was > 100 µM (inactive). Also, the GI50 is > 100 µM (inactive) in assay [13], 65 µM (inactive) in assay [14], > 100 µM (inactive) in [15] and > 100 µM (inactive) in assay [16].
Take `O=C1CC(CC(=O)C2CCCCC2=O)C(=O)N1` (stereo unspecified): the GI50 in [1], in [2], in assay [3], in assay [4], in assay [5] and in assay [6] was > 100 µM (inactive) each time. Further, the GI50 in assay [7], in assay [8], in assay [9], in [10], in [11] and in [12] was > 100 µM (inactive) each time. Also, the GI50 in assay [13], in assay [14], in assay [15] and in [16] was > 100 µM (inactive) throughout.
Take `COc1ccc(NC(=O)CC(=O)n2nc(-c3ccccc3)c(/N=N/c3ccccc3C)c2-c2ccccc2)cc1`: the GI50 in assay [1] is > 78.7 µM (inactive); in [2] it was > 79.8 µM (inactive); in assay [3], 23.3 µM (inactive); in [4], 40.9 µM (inactive); in [17], 35.3 µM (inactive); in assay [5], 18.7 µM (inactive). Besides, the GI50 in [18] was 71 µM (inactive); in assay [19], 22.7 µM (inactive); in assay [6] it was 64.1 µM (inactive); in [7], 51.8 µM (inactive); in assay [8], 26.1 µM (inactive); in [9], 22.4 µM (inactive). Also, the GI50 in [10] is 23.6 µM (inactive); in assay [11], 23.6 µM (inactive); in assay [20], 17.1 µM (inactive); in assay [12] it was 22.1 µM (inactive); in assay [13] it was > 100 µM (inactive); in assay [14], > 61.9 µM (inactive). Besides, the GI50 in assay [15] was 23.9 µM (inactive); in assay [16], 35.6 µM (inactive).
Regarding `Cc1ccc(S(=O)(=O)N(/N=C(\N)Oc2ccc(Cl)cc2)C(=N)Oc2ccc(Cl)cc2)cc1`, the GI50 in [1], in assay [2], in assay [3], in assay [4], in assay [5] and in assay [6] was > 100 µM (inactive) each time. The GI50 in [7], in assay [8], in assay [9], in assay [10], in assay [11] and in assay [12] was > 100 µM (inactive) throughout. Also, the GI50 in [13], in assay [14], in assay [15] and in assay [16] was > 100 µM (inactive) each time.
For the molecule `O=C1NC(=S)NC(=O)C1=Cc1ccc([N+](=O)[O-])o1`, the GI50 was 60.7 µM (inactive) in assay [1]; 23.9 µM (inactive) in [2]; 78.3 µM (inactive) in assay [3]; 15.7 µM (inactive) in assay [4]; 16.2 µM (inactive) in assay [5]; 44.2 µM (inactive) in [6]. For the same molecule, the GI50 in assay [7] was 19.6 µM (inactive); in assay [8], 18.4 µM (inactive); in assay [9], > 100 µM (inactive); in assay [10], 19.9 µM (inactive); in assay [11], > 100 µM (inactive); in [12], 16.9 µM (inactive). Besides, the GI50 in assay [13] was 20.3 µM (inactive); in assay [14], 23.9 µM (inactive); in [15], 17.3 µM (inactive); in assay [16], 39.2 µM (inactive).
On to `CC1=C(N2CC2)C(=O)c2nc3n(c2C1=O)CCC3O` (stereo unspecified), for which the GI50 was 0.151 µM (active) in assay [1]; 0.472 µM (active) in assay [2]; 0.166 µM (active) in assay [3]; 1.32 µM (inactive) in [4]; 0.485 µM (active) in assay [5]; 0.395 µM (active) in assay [19]. The GI50 in assay [6] was 0.226 µM (active); in [7], 1.54 µM (inactive); in [8] it was 0.152 µM (active); in [9], 0.092 µM (active); in assay [10], 0.145 µM (active); in [11], 0.215 µM (active). The GI50 in assay [12] was 0.104 µM (active); in assay [13] it was 0.423 µM (active); in assay [14] it was 1.36 µM (inactive); in [15], 0.0662 µM (active); in assay [16], 0.388 µM (active).

The record behind these values is ChEMBL document CHEMBL1201862, “PubChem BioAssay data set” (2004).
